Laboratory results published in publication PMC8296985, “A Covalent Calmodulin Inhibitor as a Tool to Study Cellular Mechanisms of K-Ras-Driven Stemness” (Frontiers in Cell and Developmental Biology, 2021).
Where “and” joins values, the source holds several entries; their conditions need not be identical. Identical values can stand only once.

Assays:
[1] = target: T1, mutCaM (CaM with K75Q, K77Q, and K148Q mutations) (Homo sapiens, UniProt P0DP23, K76Q/K78Q); assay: Fluorescence polarization assay with F-CaMKII peptide and His-mutCaM; assay type: binding; conditions: 50 nM His-mutCaM, 5 nM F-CaMKII, compared to wt CaM
T1 construct: made in house; host or cells: E. coli BL21 Star (DE3)pLysS
Protocol: Our numbering of CaM follows ([Kong Au and Chow Leung, 1998]) with Ala being the first amino acid in human CaM, as the N-terminal methionine of CaM is removed in most organisms ([Halling et al., 2016]). […] At A600 of 0.6–0.8, the culture was induced with 0.5 mM of isopropyl β-D-thiogalactopyranoside and expressed for 16 h at 25°C. Cells were collected by centrifugation and incubated on ice for 30 min. The cell suspension was sonicated in a lysis buffer (20 mM HEPES, pH 7.6, 150 mM NaCl, 5 mM MgCl2, 0.5 mg/ml lysozyme, and DNase I). The lysates were clarified by centrifugation at 18,000 g for 30 min at 4°C. The soluble fractions were subjected to protein purification.

HeLa cells = assay: Centrosome number / multipolar phenotype in synchronized HeLa cells expressing mCherry-CaM; assay type: cell-based; conditions: 2 h; calmidazolium 20 μM, 1 50 μM, with MG132 10 μM
Protocol: To evaluate the effect of compounds on centrosome numbers during mitosis, HeLa cells were seeded in 6-well plates onto sterile coverslips and cotransfected with 0.5 μg of pmCherry-CaM and 1.5 μg pEGFP-Centrin1 plasmids using 4 μl of jetPRIME. Twenty-four hours after the transfection, cells were synchronized with 60 ng/ml of nocodazole for 16 h. After the removal of nocodazole, the cells were treated with the […] MG132 (10 μM) to block the cells in metaphase and either calmidazolium (20 μM), 1 (50 μM), or DMSO (0.5%) for 2 h. Cells were then fixed with 4% paraformaldehyde in PBS for 10 min at ambient temperature. After washing with PBS-Tween 0.05%, DNA was stained with a 1 μg/ml solution of DAPI diluted in PBS for 10 min. Coverslips were mounted on glass slides using Vectashield, and images were captured on a spinning disk confocal microscope. Images were analyzed with the ImageJ software, and the number of transfected mitotic cells with multipolar and normal bipolar phenotypes was counted (between 35 and 70 cells per test condition). The percentage multipolar vs. bipolar cells was computed to generate the plot using the Prism software.

[2] = test system: HRAS mutant cells (Hs 578T, T24); assay: 2D viability assay (alamarBlue), DSS3; assay type: cell-based; conditions: relative to OphA; listed as Calmirasone1
Protocol: (§1) To quantitatively profile the drug sensitivity with a more robust parameter than the IC50 or EC50 values, the drug sensitivity score (DSS) analysis was employed. DSS values are essentially normalized area under the curve (AUC) measures of dose-response inhibition data ([Yadav et al., 2014]). Drug response data files (in Excel) ready for online analysis were prepared according to the example file obtained from the DSS pipeline website, called Breeze^1 ([Potdar et al., 2020]). Either raw fluorescence intensity measurements or normalized % inhibition data (for BRET assay analysis) were uploaded.
DSS3 was employed to emphasize drugs that obtain their response area over a relatively wide dose window, as compared to drugs that show increased response only at the higher end of the concentration range. After logistic fitting of the dose-response inhibition data, the area under the curve (AUC) was determined as the exact solution. A 10% minimal activity threshold (t) was set. The maximum (Cmax) and minimum (Cmin) concentrations were used for screening of the inhibitors, with Cmax = x2 and x1 concentration with minimal activity t. […]

[3] = test system: NCI-H358, MIA PaCa-2, MDA-MB-231 and A375 3D spheroids; assay: 3D spheroid growth benchmarking, DSS3, alamarBlue; assay type: cell-based
Protocol: 3D spheroid formation assays were performed in 96-well low-attachment, suspension culture plates (cat. no. 655185, Cellstar, Greiner Bio-One) under serum-free condition. About 1,000 (MDA-MB-231, NCI-H358, and MIA PaCa-2) or 2,500 (Hs 578T) cells per well were seeded in 50 μl of either an RPMI medium (cat. no. 52400-025, Gibco, Thermo Fisher Scientific) (MDA-MB-231, A375, and NCI-H358) or DMEM (cat. no. 41965-039, Gibco, Thermo Fisher Scientific) (Hs 578T and MIA PaCa-2), containing 0.5% MethoCult (cat. no. SF H4636, Stemcell technologies), 1x B27 (cat. no. 17504044, Gibco, Thermo Fisher Scientific), 25 ng/ml EGF (cat. no. E9644, Sigma-Aldrich), and 25 ng/ml FGF (cat. no. RP-8628, Thermo Fisher Scientific). Cells were cultured for 3 days and then treated with compounds or vehicle control (DMSO 0.1% v/v in growth medium) for another 3 days. The cells were supplemented with a fresh growth medium on the third day together with the drug treatment. For knockdown experiments, cells were seeded in 12-well plates and treated with either 50 nM scrambled siRNA (cat. no. 1022076, QIAGEN) or indicated concentrations of siRNAs. Next day, cells were collected by trypsinization and re-plated into 96-well plates for 3D spheroid suspension culture.
Spheroid formation efficiency was analyzed by an alamarBlue assay reagent (cat. no. DAL1100, Thermo Fisher Scientific). A 10% final volume of the alamarBlue reagent was added to each well of the plate and incubated for 4 h at 37°C. Then the fluorescence intensity was measured using the FLUOstar OPTIMA plate reader (BMG Labtech, Germany) with an excitation wavelength of 560 ± 5 nm and an emission wavelength of 590 ± 5 nm.
as §1
DSS3 was employed to emphasize drugs that obtain their response area over a relatively wide dose window, as compared to drugs that show increased response only at the higher end of the concentration range. After logistic fitting of the dose-response inhibition data, the area under the curve (AUC) was determined as the exact solution. A 10% minimal activity threshold (t) was set. The maximum (Cmax) and minimum (Cmin) concentrations were used for screening of the inhibitors, with Cmax = x2 and x1 concentration with minimal activity t.

Compound	binding to mutCaM over time [1]	multipolar phenotype (multiple mCherry-CaM-positive centrosomes) (HeLa cells)	lower unspecific toxic effect on HRAS mutant cells as compared to OphA [2]	DSS3 potency relative to K-RasG12C inhibitor AMG-510 in 3D spheroid assays ([3]; relative to AMG-510)	effect on 3D spheroid growth ([3]; spheroids grown 72 h then treated 72 h)
CC(C)=C[C@H]1C[C@H](C)[C@]2(CC[C@]3(C)C[C@H]4[C@H](C(=O)C[C@@]4(C)O)/C(C=O)=C\C[C@H]32)O1 [OphA, Ophiobolin A, reference compound]	no binding was observed to mutCaM				
CC(C)c1ccc2cc(C(F)(F)F)c(=O)c3c(N4CCCCC4)c(C=O)c(c1)c23 [Compound 1]	displayed binding to mutCaM	significantly pronounced	> 40 fold and 40–260 fold	~50%	visibly lower activity
